How the values were obtained:
MDA-MB-468 = experiment: Immunofluorescent staining: centrosomes and chromosome segregation; format: cell-based, human; settings: 3 μM
Procedure: (§1) Cells on coverslips placed on the bottom of 35 mm tissue culture plates or 6-well clustered dishes were treated for 12-24 hours with the CTR compounds to be tested. Subsequently, the cells were fixed with 100% methanol for 15 minutes and washed with 1×PBS three times. Cells were then “blocked” with 3% BSA or 1% (v/v) FBS plus 1×PBST (1×PBS buffer containing 0.1% (v/v) Triton X-100 or 0.2% Tween 20), and incubated overnight at 4° C. with primary antibodies, with gentle agitation. Unbound primary antibodies were washed off with PBST, and a secondary antibody was added for 1 hour in the dark. Secondary antibodies were conjugated to Alexa 488 or 568. DNA was counterstained with DRAQ5 or DAPI. Subsequently, coverslips were washed three times with 1×PBST for 10 minutes each, followed by mounting them onto slides with 90% glycerol in 1×PBS. Each slide was visualized with a Carl Zeiss 510 Meta laser scanning microscope or an Axioscope. Image analysis was done with an LSM image examiner equipped with the microscopes (Carl Zeiss, Toronto, ON, Canada).
(§2) The cancer-specific increase of mitotic cells in response to CTR-17 was correlated with the accumulation of cells with monopolar centrosomes and abnormal chromosome alignment/segregation (FIG. 11, Table 5). Cells were either sham-treated or treated with 3.0 μM CTR-17 for 12 hours or 24 hours, followed by analyses of cell cycle progression, centrosome abnormalities, and chromosome alignment/segregation. […] The mitotic index was determined by fluorescence microscopic analysis of at least 200 cells for each cell type, and data was expressed as percentage mean±S.E.M. of at least two independent experiments.

HEK293T = experiment: as above; format: cell-based; settings: 3 μM
Procedure: as §1, §2

HeLa cells [1] = experiment: EdU incorporation (DNA replication); format: cell-based; settings: 3.0 μM for 24 hours; sham control 25.4%
Procedure: (§3) CTR-17 caused neither impediment of DNA replication nor DNA damage. […] The detection of EdU incorporated into DNA was carried out by fluorescence microscopy. […] Etoposide (50.0 μM) was used as a positive control.

HeLa cells [2] = experiment: γ-H2AX immunostaining (DNA damage); format: cell-based; settings: 3.0 μM
Procedure: as §3

ANBL6-BR = experiment: Antiproliferation, bortezomib-resistant cells; format: cell-based; settings: ANBL6-BR (bortezomib-resistant multiple myeloma)
Procedure: All of the cell lines used were purchased from ATCC and cultured in RPMI-1640 supplemented with 10% fetal bovine serum and antibiotics (100 units penicillin/100 μg/ml streptomycin), unless stated otherwise. 1845B5 and MCF-10A non-cancer breast cell lines were cultured in DME/F12 medium supplemented with 10% fetal bovine serum, antibiotics and growth factors. […] The human small cell lung carcinoma H69 cell line and its multidrug-resistant MRP1-overexpressing isogenic H69AR cell line were purchased from ATCC. […] H69 cells grow as large multi-cell aggregates, making it difficult to accurately count cell numbers. […] The IL-6 dependent bortezomib-resistant ANBL6-BR cell line was further supplemented with 1 ng/ml of IL-6. The MCF10AT1 and MCF10CA1a cell lines are isogenic to the MCF10A cell line, and obtained from Dr. Valerie Weaver at the Center for Bioengineering and Tissue Regeneration, UCSF, CA, USA. […] Cell growth (inhibition) was calculated by the following formula: % cells proliferation=[(AT-CT)/(ST-CT)]×100 wherein AT=absorbance of treated cells, CT=absorbance of negative control cells, and ST=absorbance of sham treated cells. […] The combinational index (CI) was calculated as described previously (Chou 2006). […] CI values were determined from four independent experiments.

NCI-60 cancer cell lines = experiment: NCI-60 cancer panel SRB screening; format: cell-based; settings: 10 μM, 48 hours
Procedure: Ten μM of CTR-20 was used to examine the drug's efficacy against the NCI-60 cancer cell lines including: six leukemia cell lines, nine non-small cell lung cancer cell lines, seven colorectal cancer cell lines, six CNS cancer cell lines, nine melanoma cell lines, seven ovarian cancer cell lines, seven renal cancer cell lines, two prostate cancer cell lines and six breast cancer cell lines. Screening method was carried out by a sulforhodamine B (SRB) colorimetric assay.

HeLa S3 cells = experiment: Trypan blue exclusion assay; format: cell-based; settings: 1 μM; 72 hours post-treatment
Procedure: Cell survival/death was determined by trypan blue exclusion assays.

MCF-7 = experiment: Immunofluorescent staining: centrosomes and chromosome segregation; format: cell-based, human; settings: 1 μM, 24 hours
Procedure: as §1
Asynchronously growing cells were treated with 1 μM CTR-20 for 24 hours, followed by examining cells arrested in mitosis. The percentage of mitotic cells was calculated based on the examination of at least 250-400 cells. […]

COc1ccccc1C(=O)/C=C/c1cc2ccccc2[nH]c1=O [CTR-17, (E)-3-(3-(2-Methoxyphenyl)-3-oxoprop-1-enyl)quinolin-2(1H)-one]
ACS (abnormal chromosome segregation) (MDA-MB-468; 12 h post-treatment): 44.7 ± 8.9% of total mitotic cells
Monopolar centrosome (MDA-MB-468; 12 h post-treatment): 55.3 ± 8.9% of total mitotic cells
ACS (abnormal chromosome segregation) (MDA-MB-468; 24 h post-treatment): 24.0 ± 5.9% of total mitotic cells
Monopolar centrosome (MDA-MB-468; 24 h post-treatment): 76.0 ± 5.9% of total mitotic cells
ACS (abnormal chromosome segregation) (HEK293T; 12 h post-treatment): 48.2 ± 10.1% of total mitotic cells
Monopolar centrosome (HEK293T; 12 h post-treatment): 50.5 ± 10.1% of total mitotic cells
ACS (abnormal chromosome segregation) (HEK293T; 24 h post-treatment): 0.1 ± 0.0% of total mitotic cells
Monopolar centrosome (HEK293T; 24 h post-treatment): 93.2 ± 3.4% of total mitotic cells
EdU positive cells (HeLa cells [1]): 22.0%
DNA damage (γ-H2AX) (HeLa cells [2]): does not cause any notable DNA damage

COc1ccc2[nH]c(=O)c(/C=C/C(=O)c3ccccc3OC)cc2c1 [CTR-20, (E)-6-Methoxy-3-(3-(2-methoxyphenyl)-3-oxoprop-1-enyl) quinolin-2(1H)-one]
IC50 (ANBL6-BR): 0.76 ± 0.28 µM
cell survival (range over cell lines) (NCI-60 cancer cell lines; nine melanomas): −10.05 to +50.45%
cell survival (range over cell lines) (NCI-60 cancer cell lines; nine non-small cell lung cancer cell lines): −11.97 to 38.93%
cell survival (range over cell lines) (NCI-60 cancer cell lines; seven colorectal cancer cell lines): +4.37 to +23.11%
cell survival (range over cell lines) (NCI-60 cancer cell lines; seven ovarian cancer cell lines): +1.18 to +50.80%
cell survival (range over cell lines) (NCI-60 cancer cell lines; seven renal cancer cell lines): −7.90 to +42.01%
cell survival (range over cell lines) (NCI-60 cancer cell lines; six breast cancer cell lines): −2.02 to +18.91%
cell survival (range over cell lines) (NCI-60 cancer cell lines; six leukemia cell lines): −2.46 to +10.88%
cell survival (range over cell lines) (NCI-60 cancer cell lines; two prostate cancer cell lines): +10.76 to +22.06%
cell death (HeLa S3 cells): ~70%
ACA/S (%) (abnormal chromosome alignment and segregation) (MCF-7): 29.01 ± 2.50%
Monopolar (%) (MCF-7): 62.41 ± 2.99%

From patent US20180344725A1, “QUINOLONE CHALCONE COMPOUNDS AND USES THEREOF” (priority 2015, published 2018)
